Reference: PubChem BioAssay AID330 (DTP/NCI, 2004)
Several values for one entry are separate records, joined by “and”; a condition that tells them apart may be missing. Equal values may be shown once. Toxic doses and inconclusive results are not listed.

Tested on: P388 leukemia ip, CD2F1 mice, survival T/C
Assay: NCI In Vivo Anticancer Drug Screen. Data for tumor model P388 Leukemia (intraperitoneal) in CD2F1 (CDF1) mice
Settings: endpoint: median survival time, higher = longer survival
Method in brief: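 Mice carrying the transplanted tumor received test compound or vehicle. Survival was recorded in each group, and the value is the treated-group measurement divided by that of the vehicle-treated control group.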

Question: What does the source list for O=c1[nH]cc(F)c(=O)[nH]1?
Answer: T/C (dose: 6.25 mg/kg/injection, schedule: Q01DX009 (ip), vehicle: saline): 163 % of control; T/C (dose: 7.5 mg/kg/injection, schedule: Q01DX009 (ip), vehicle: saline): 167 % of control and 172 % of control; T/C (dose: 7.5 mg/kg/injection, schedule: Q01DX009 (oral), vehicle: clinical formulation): 107 % of control; T/C (dose: 7.5 mg/kg/injection, schedule: Q03HX024 (ip), vehicle: saline): 201 % of control; T/C (dose: 7.5 mg/kg/injection, schedule: Q04DX003 (iv), vehicle: saline): 107 % of control; T/C (dose: 7.8 mg/kg/injection, schedule: Q04DX003 (ip), vehicle: saline): 99 % of control; T/C (dose: 9.0 mg/kg/injection, schedule: Q01DX009 (ip), vehicle: saline): 159 % of control; T/C (dose: 10.0 mg/kg/injection, schedule: Q03HX024 (ip), vehicle: saline): 228 % of control; T/C (dose: 10.0 mg/kg/injection, schedule: Q04DX002 (ip), vehicle: saline): 123 % of control; T/C (dose: 12.0 mg/kg/injection, schedule: Q01DX009 (ip), vehicle: saline): 153 % of control and 166 % of control; T/C (dose: 12.5 mg/kg/injection, schedule: Q01DX005 (ip), vehicle: saline): 167 % of control and 176 % of control; T/C (dose: 12.5 mg/kg/injection, schedule: Q01DX009 (ip), vehicle: saline): 166 % of control; T/C (dose: 13.0 mg/kg/injection, schedule: Q04DX002 (ip), vehicle: saline): 106 % of control; T/C (dose: 13.2 mg/kg/injection, schedule: Q01DX009 (ip), vehicle: saline): 182 % of control and 213 % of control; T/C (dose: 13.2 mg/kg/injection, schedule: Q01DX009 (ip), vehicle: water): 200 % of control; T/C (dose: 13.3 mg/kg/injection, schedule: Q01DX009 (ip), vehicle: saline sonified): 165 % of control and 181 % of control and 200 % of control; T/C (dose: 15.0 mg/kg/injection, schedule: Q03HX024 (ip), vehicle: saline): 257 % of control; T/C (dose: 15.0 mg/kg/injection, schedule: Q04DX003 (iv), vehicle: saline): 109 % of control; T/C (dose: 16.0 mg/kg/injection, schedule: Q01DX009 (ip), vehicle: saline): 212 % of control; T/C (dose: 18.0 mg/kg/injection, schedule: Q01DX009 (ip), vehicle: saline): 166 % of control; T/C (dose: 19.0 mg/kg/injection, schedule: Q01DX009 (ip), vehicle: saline): 170 % of control; T/C (dose: 20.0 mg/kg/injection, schedule: Q01DX009 (ip), vehicle: water): 118 % of control; T/C (dose: 21.6 mg/kg/injection, schedule: Q04DX002 (ip), vehicle: saline): 97 % of control; T/C (dose: 22.5 mg/kg/injection, schedule: Q03HX024 (ip), vehicle: saline): 118 % of control; T/C (dose: 24.0 mg/kg/injection, schedule: Q01DX009 (ip), vehicle: saline): 119 % of control and 223 % of control; T/C (dose: 25.0 mg/kg/injection, schedule: Q01DX001 (iv), vehicle: saline): 120 % of control; T/C (dose: 27.0 mg/kg/injection, schedule: Q01DX009 (ip), vehicle: water): 97 % of control; T/C (dose: 27.0 mg/kg/injection, schedule: Q04DX003 (ip), vehicle: saline): 158 % of control; T/C (dose: 28.0 mg/kg/injection, schedule: Q01DX009 (ip), vehicle: saline): 101 % of control; T/C (dose: 28.8 mg/kg/injection, schedule: Q01DX005 (ip), vehicle: saline): 158 % of control; T/C (dose: 30.0 mg/kg/injection, schedule: Q03DX003 (ip), vehicle: saline): 162 % of control; T/C (dose: 30.0 mg/kg/injection, schedule: Q04DX003 (iv), vehicle: saline): 124 % of control; T/C (dose: 36.0 mg/kg/injection, schedule: Q01DX009 (ip), vehicle: saline): 100 % of control; T/C (dose: 36.0 mg/kg/injection, schedule: Q04DX002 (ip), vehicle: saline): 112 % of control; T/C (dose: 40.0 mg/kg/injection, schedule: Q03DX003 (ip), vehicle: saline): 165 % of control; T/C (dose: 45.0 mg/kg/injection, schedule: Q01DX009 (ip), vehicle: saline): 99 % of control; T/C (dose: 48.0 mg/kg/injection, schedule: Q01DX005 (ip), vehicle: saline): 109 % of control; T/C (dose: 50.0 mg/kg/injection, schedule: Q01DX001 (ip), vehicle: saline): 119 % of control; T/C (dose: 50.0 mg/kg/injection, schedule: Q01DX005 (ip), vehicle: saline): 112 % of control; T/C (dose: 50.0 mg/kg/injection, schedule: Q03DX003 (ip), vehicle: saline): 168 % of control; T/C (dose: 50.0 mg/kg/injection, schedule: Q04DX002 (ip), vehicle: saline): 154 % of control; T/C (dose: 54.0 mg/kg/injection, schedule: Q04DX003 (ip), vehicle: saline): 159 % of control; T/C (dose: 60.0 mg/kg/injection, schedule: Q01DX009 (oral), vehicle: clinical formulation): 94 % of control; T/C (dose: 60.0 mg/kg/injection, schedule: Q03DX003 (ip), vehicle: saline): 99 % of control; T/C (dose: 60.0 mg/kg/injection, schedule: Q04DX003 (ip), vehicle: water): 170 % of control; T/C (dose: 60.0 mg/kg/injection, schedule: Q04DX003 (iv), vehicle: saline): 122 % of control; T/C (dose: 66.0 mg/kg/injection, schedule: Q01DX001 (ip), vehicle: saline): 120 % of control; T/C (dose: 75.0 mg/kg/injection, schedule: Q01DX005 (ip), vehicle: saline): 99 % of control; T/C (dose: 75.0 mg/kg/injection, schedule: Q04DX003 (ip), vehicle: saline): 185 % of control and 192 % of control and 199 % of control; T/C (dose: 88.0 mg/kg/injection, schedule: Q01DX001 (ip), vehicle: saline): 115 % of control; T/C (dose: 90.0 mg/kg/injection, schedule: Q04DX003 (ip), vehicle: saline sonified): 108 % of control; T/C (dose: 100.0 mg/kg/injection, schedule: Q01DX001 (iv), vehicle: saline): 164 % of control; T/C (dose: 120.0 mg/kg/injection, schedule: Q01DX005 (ip), vehicle: saline): 91 % of control; T/C (dose: 120.0 mg/kg/injection, schedule: Q01DX009 (ip), vehicle: saline): 83 % of control; T/C (dose: 120.0 mg/kg/injection, schedule: Q04DX003 (iv), vehicle: saline): 87 % of control; T/C (dose: 125.0 mg/kg/injection, schedule: Q04DX003 (ip), vehicle: saline): 109 % of control; T/C (dose: 133.3 mg/kg/injection, schedule: Q01DX001 (ip), vehicle: saline): 337 % of control; T/C (dose: 135.0 mg/kg/injection, schedule: Q04DX003 (ip), vehicle: saline): 98 % of control; T/C (dose: 166.7 mg/kg/injection, schedule: Q04DX003 (ip), vehicle: saline): 79 % of control and 81 % of control; T/C (dose: 400.0 mg/kg/injection, schedule: Q01DX001 (iv), vehicle: saline): 100 % of control

Question: Cc1cc(NC(=O)NCCOc2ccc(N3C(N)=NC(N)=NC3(C)C)cc2Cl)ccc1S(=O)(=O)F was tested. Which T/C (dose: 12.5 mg/kg/injection, schedule: Q04DX003 (ip), vehicle: saline sonified) did it give?
Answer: Its T/C is 100 % of control.

Question: And the T/C (dose: 25.0 mg/kg/injection, schedule: Q04DX003 (ip), vehicle: saline sonified)?
Answer: Its T/C is 100 % of control.

Question: And the T/C (dose: 50.0 mg/kg/injection, schedule: Q04DX003 (ip), vehicle: saline sonified)?
Answer: Its T/C is 100 % of control.

Question: Nc1ncnc(N2C(=S)OC3C(O)C(CO)OC32)c1N (stereo unspecified) was tested. Which T/C (dose: 25.0 mg/kg/injection, schedule: Q04DX003 (ip), vehicle: water) did it give?
Answer: Its T/C is 100 % of control.

Question: And the T/C (dose: 50.0 mg/kg/injection, schedule: Q04DX003 (ip), vehicle: water)?
Answer: Its T/C is 95 % of control.

Question: What about the T/C (dose: 100.0 mg/kg/injection, schedule: Q04DX003 (ip), vehicle: water) of the same molecule?
Answer: The T/C was 95 % of control.

Question: And the T/C (dose: 200.0 mg/kg/injection, schedule: Q04DX003 (ip), vehicle: water)?
Answer: The T/C was 113 % of control.

Question: And the T/C (dose: 400.0 mg/kg/injection, schedule: Q04DX003 (ip), vehicle: water)?
Answer: Its T/C is 95 % of control.

Question: For O=S(=O)(c1ccc2ccccc2c1)N(CCCCCN(S(=O)(=O)c1ccc2ccccc2c1)S(=O)(=O)c1ccc2ccccc2c1)S(=O)(=O)c1ccc2ccccc2c1, which T/C (dose: 60.0 mg/kg/injection, schedule: Q01DX005 (ip), vehicle: saline with Tween-80) is on record?
Answer: Its T/C is 104 % of control.

Question: What about the T/C (dose: 120.0 mg/kg/injection, schedule: Q01DX005 (ip), vehicle: saline with Tween-80) of the same molecule?
Answer: The T/C was 94 % of control.

Question: Which results are given for O=C1CC(c2ccccc2)Oc2cc(O)cc(O)c21 (stereo unspecified)?
Answer: T/C (dose: 12.5 mg/kg/injection, schedule: Q01DX009 (ip), vehicle: Klucel (hydroxypropylcellulose) (HPC)): 98 % of control; T/C (dose: 25.0 mg/kg/injection, schedule: Q01DX009 (ip), vehicle: Klucel (hydroxypropylcellulose) (HPC)): 98 % of control; T/C (dose: 50.0 mg/kg/injection, schedule: Q01DX009 (ip), vehicle: other): 110 % of control; T/C (dose: 100.0 mg/kg/injection, schedule: Q01DX009 (ip), vehicle: Klucel (hydroxypropylcellulose) (HPC)): 98 % of control; T/C (dose: 200.0 mg/kg/injection, schedule: Q01DX009 (ip), vehicle: other): 102 % of control; T/C (dose: 400.0 mg/kg/injection, schedule: Q01DX009 (ip), vehicle: other): 102 % of control

Question: CC1C(c2ccccc2)OC(c2ccccc2)N1C (stereo unspecified) was tested. Which T/C (dose: 12.5 mg/kg/injection, schedule: Q01DX005 (ip), vehicle: water) did it give?
Answer: The T/C was 93 % of control.

Question: And the T/C (dose: 25.0 mg/kg/injection, schedule: Q01DX005 (ip), vehicle: water)?
Answer: The T/C was 93 % of control.

Question: And the T/C (dose: 50.0 mg/kg/injection, schedule: Q01DX005 (ip), vehicle: water)?
Answer: The T/C was 98 % of control.

Question: What about the T/C (dose: 100.0 mg/kg/injection, schedule: Q01DX005 (ip), vehicle: water) of the same molecule?
Answer: Its T/C is 93 % of control.

Question: And the T/C (dose: 200.0 mg/kg/injection, schedule: Q01DX005 (ip), vehicle: water)?
Answer: Its T/C is 98 % of control.
